# System: isolated mitochondria from human cardiac fibroblast (HCF) cells
# Experiment: Mitochondrial membrane potential assay (MitoTracker Red CMXRos / MitoTracker Green FM staining)
# Assay type: cell-based
# Settings: single cryoprotectant at 5%, 10%, 20% (v/v) in trehalose-based isolation buffer; frozen on dry ice, thawed 37° C.; normalized to non-frozen control
# Procedure: Procedure: Isolated mitochondria in the form of pellets were resuspended in two different isolation buffers containing respectively either 300 mM sucrose or 300 mM trehalose and then frozen in 1.5 ml Eppendorf tubes by placing them either in liquid nitrogen for approximately 1 minute or on dry ice for approximately 3 minutes. For thawing, the tubes were placed in a 37° C. water bath until the entire sample was thawed, and then immediately transferred on ice.
# To assess the mitochondrial membrane potential, the isolated mitochondria were resuspended either in the sucrose-containing isolation buffer or in the trehalose-containing isolation buffer at 1 mg/ml, and 15 μg of mitochondrial suspension were used for each sample. Both non-frozen mitochondria and mitochondria frozen and thawed according to procedure described under section 2.2 were stored on ice until use, e.g., stored for a period of 5 minutes to maximum 60 minutes, preferably for a few minutes (e.g., for a period of maximum 15 minutes, such as 5 minutes or 10 minutes). For Mitotracker Red CMXRos/Mitotracker Green FM staining, a labelling solution was prepared, by adding 200 nM MitoTracker Red CMxROS and 200 nM MitoTracker Green FM (Thermo Fisher) in the isolation buffer. The isolated mitochondria were then suspended in 1 ml of the labelling solution, vortexed and incubated for 15 minutes in a 37° C. incubator. Mitochondria were sedimented by centrifugation at 9500 g for 5 minutes at 4° C., washed once with the respective isolation buffer, and resuspended in the isolation buffer at a concentration of 1 mg/ml. […] MitoTracker Red or MitoTracker Green signal was quantified using Keyence BZ-800 Analyzer software, integrated brightness per image was taken for calculations and averaged between images taken from one sample.
# The effect of cryoprotectant addition on maintaining integrity of the inner mitochondrial membrane was studied using MitoTracker staining assay, as described in Example 2.3. […] Alle frozen samples were thawed in a 37° C. water bath and analyzed by MitoTracker staining.
row,SMILES,integrity of the inner mitochondrial membrane (MitoTracker Red staining)
1,"O.O=C[C@H](O)[C@@H](O)[C@H](O)[C@H](O)CO [CRYO33, D-(+)-Glucose monohydrate]",preserve mitochondria inner membrane integrity
2,"OC[C@H]1O[C@@](CO)(O[C@H]2O[C@H](CO)[C@@H](O)[C@H](O)[C@H]2O)[C@@H](O)[C@@H]1O [CRYO25, D-(+)-Sucrose]",preserve mitochondria inner membrane integrity
3,"O=C(O)[C@@H]1CCCN1 [CRYO6, L-Proline]",preserve mitochondria inner membrane integrity
